ChEMBL document CHEMBL1122193, “Design of potent and selective antagonists of the vasopressor responses to arginine-vasopressin” (J Med Chem, 1982)
Residues, ends and D or L forms follow the SMILES beside them.

Tests used:
Rattus norvegicus [1] = test: Antidiuretic activity in intravenous antidiuretic assay in rats under ethanol anesthesia; type: functional, Urine
Rattus norvegicus [2] = organism: Rattus norvegicus; test: In vitro anti-oxytocic potency was recorded in presence of 0.5 mM Mg2+ in rat uteri; type: functional; conditions: read-out: pA2 (converted)
Rattus norvegicus [3] = test: Compound evaluated in vivo and negative logarithm of effective dose divided by estimated volume of distribution (67 mL/kg) determined; type: ADME, organism-based; conditions: read-out: pA2 (converted)
Rattus norvegicus [4] = organism: Rattus norvegicus; test: In vitro anti-oxytocic potency was recorded in absence of Mg2+ in rat uteri; type: functional; conditions: read-out: pA2 (converted)
Rattus norvegicus [5] = organism: Rattus norvegicus; test: Effective dose for anti-vasopressor potency to reduce the response to 2x units of agonist to equal the response to 1x units; type: functional

SMILES	Antidiuretic activity (Rattus norvegicus [1]) [U/mg]	Kb (Rattus norvegicus [2]) [nM]	Kb (Rattus norvegicus [3]) [nM]	Kb (Rattus norvegicus [4]) [nM]	Effective dose (Rattus norvegicus [5]) [nM/kg]
CCC1(CC)CC(=O)N[C@@H](Cc2ccc(O)cc2)C(=O)N[C@H](Cc2ccccc2)C(=O)N[C@@H](CCC(N)=O)C(=O)N[C@H](CC(N)=O)C(=O)N[C@@H](C(=O)N2CCC[C@H]2C(=O)N[C@H](CCCN=C(N)N)C(=O)NCC(N)=O)CSS1	0.06	200	11	112	0.81
NC(=O)CC[C@@H]1NC(=O)[C@H](Cc2ccccc2)NC(=O)[C@H](Cc2ccc(O)cc2)NC(=O)CC2(CCCCC2)SSC[C@@H](C(=O)N2CCC[C@H]2C(=O)N[C@@H](CCCN=C(N)N)C(=O)NCC(N)=O)NC(=O)[C@H](CC(N)=O)NC1=O [listing 1 of 2 here]	–	53.7	–	47.9	–
NC(=O)CC[C@@H]1NC(=O)[C@H](Cc2ccccc2)NC(=O)[C@H](Cc2ccc(O)cc2)NC(=O)CC2(CCCCC2)SSC[C@@H](C(=O)N2CCC[C@H]2C(=O)N[C@@H](CCCN=C(N)N)C(=O)NCC(N)=O)NC(=O)[C@H](CC(N)=O)NC1=O [listing 2 of 2 here]	–	–	–	–	0.34
NC(=O)CC[C@@H]1NC(=O)[C@H](Cc2ccccc2)NC(=O)[C@H](Cc2ccc(O)cc2)NC(=O)CC2(CCCCC2)SSC[C@@H](C(=O)N2CCC[C@H]2C(=O)N[C@H](CCCN=C(N)N)C(=O)NCC(N)=O)NC(=O)[C@H](CC(N)=O)NC1=O [listing 1 of 2 here]	–	257	3.02	107	–
NC(=O)CC[C@@H]1NC(=O)[C@H](Cc2ccccc2)NC(=O)[C@H](Cc2ccc(O)cc2)NC(=O)CC2(CCCCC2)SSC[C@@H](C(=O)N2CCC[C@H]2C(=O)N[C@H](CCCN=C(N)N)C(=O)NCC(N)=O)NC(=O)[C@H](CC(N)=O)NC1=O [listing 2 of 2 here]	0.31	–	–	–	0.2
CC(C)[C@@H]1NC(=O)[C@H](Cc2ccccc2)NC(=O)[C@H](Cc2ccc(O)cc2)NC(=O)CC(C)(C)SSC[C@@H](C(=O)N2CCC[C@H]2C(=O)N[C@H](CCCN=C(N)N)C(=O)NCC(N)=O)NC(=O)[C@H](CC(N)=O)NC1=O [listing 1 of 2 here]	–	75.9	–	–	–
CC(C)[C@@H]1NC(=O)[C@H](Cc2ccccc2)NC(=O)[C@H](Cc2ccc(O)cc2)NC(=O)CC(C)(C)SSC[C@@H](C(=O)N2CCC[C@H]2C(=O)N[C@H](CCCN=C(N)N)C(=O)NCC(N)=O)NC(=O)[C@H](CC(N)=O)NC1=O [listing 2 of 2 here]	123	–	–	–	1.1
CCC1(CC)CC(=O)N[C@@H](Cc2ccc(O)cc2)C(=O)N[C@H](Cc2ccccc2)C(=O)N[C@@H](C(C)C)C(=O)N[C@H](CC(N)=O)C(=O)N[C@@H](C(=O)N2CCC[C@H]2C(=O)N[C@@H](CCCN=C(N)N)C(=O)NCC(N)=O)CSS1	1.5	21.9	5.13	47.9	0.38
CC1(C)CC(=O)N[C@@H](Cc2ccc(O)cc2)C(=O)N[C@H](Cc2ccccc2)C(=O)N[C@@H](CCC(N)=O)C(=O)N[C@H](CC(N)=O)C(=O)N[C@@H](C(=O)N2CCC[C@H]2C(=O)N[C@H](CCCN=C(N)N)C(=O)NCC(N)=O)CSS1	5.8	195	35.5	13.5	2.5
CCC1(CC)CC(=O)N[C@@H](Cc2ccc(O)cc2)C(=O)N[C@H](Cc2ccccc2)C(=O)N[C@@H](C(C)C)C(=O)N[C@H](CC(N)=O)C(=O)N[C@@H](C(=O)N2CCC[C@H]2C(=O)N[C@H](CCCN=C(N)N)C(=O)NCC(N)=O)CSS1	0.71	61.7	6.61	51.3	0.35
CC1(C)CC(=O)N[C@@H](Cc2ccc(O)cc2)C(=O)N[C@@H](Cc2ccccc2)C(=O)N[C@@H](CCC(N)=O)C(=O)N[C@@H](CC(N)=O)C(=O)N[C@H](C(=O)N2CCC[C@H]2C(=O)N[C@@H](CCCN=C(N)N)C(=O)NCC(N)=O)CSS1 [listing 1 of 2 here]	–	1170	–	–	–
CC1(C)CC(=O)N[C@@H](Cc2ccc(O)cc2)C(=O)N[C@@H](Cc2ccccc2)C(=O)N[C@@H](CCC(N)=O)C(=O)N[C@@H](CC(N)=O)C(=O)N[C@H](C(=O)N2CCC[C@H]2C(=O)N[C@@H](CCCN=C(N)N)C(=O)NCC(N)=O)CSS1 [listing 2 of 2 here]	–	–	–	–	3.2
CCC1(CC)CC(=O)N[C@@H](Cc2ccc(O)cc2)C(=O)N[C@@H](Cc2ccccc2)C(=O)N[C@@H](CCC(N)=O)C(=O)N[C@@H](CC(N)=O)C(=O)N[C@H](C(=O)N2CCC[C@H]2C(=O)N[C@@H](CCCN=C(N)N)C(=O)NCC(N)=O)CSS1 [listing 1 of 2 here]	–	69.2	4.37	50.1	–
CCC1(CC)CC(=O)N[C@@H](Cc2ccc(O)cc2)C(=O)N[C@@H](Cc2ccccc2)C(=O)N[C@@H](CCC(N)=O)C(=O)N[C@@H](CC(N)=O)C(=O)N[C@H](C(=O)N2CCC[C@H]2C(=O)N[C@@H](CCCN=C(N)N)C(=O)NCC(N)=O)CSS1 [listing 2 of 2 here]	0.38	–	–	–	0.32
CC(C)[C@@H]1NC(=O)[C@@H](Cc2ccccc2)NC(=O)[C@H](Cc2ccc(O)cc2)NC(=O)CC(C)(C)SSC[C@H](C(=O)N2CCC[C@H]2C(=O)N[C@@H](CCCN=C(N)N)C(=O)NCC(N)=O)NC(=O)[C@@H](CC(N)=O)NC1=O	312	19.1	12	8.13	0.84
CC(C)[C@@H]1NC(=O)[C@H](Cc2ccccc2)NC(=O)[C@H](Cc2ccc(O)cc2)NC(=O)CC2(CCCCC2)SSC[C@@H](C(=O)N2CCC[C@H]2C(=O)N[C@@H](CCCN=C(N)N)C(=O)NCC(N)=O)NC(=O)[C@H](CC(N)=O)NC1=O (HELM PEPTIDE1{Y.F.V.N.C.P.R.G.[am]}|CHEM1{[O=C(CC1(S[*:2])CCCCC1)[*:1]]}$PEPTIDE1,CHEM1,1:R1-1:R1|PEPTIDE1,CHEM1,5:R3-1:R2$$$V2.0)	0.32	–	–	–	0.76
CC(C)[C@@H]1NC(=O)[C@H](Cc2ccccc2)NC(=O)[C@H](Cc2ccc(O)cc2)NC(=O)CC2(CCCCC2)SSC[C@@H](C(=O)N2CCC[C@H]2C(=O)N[C@H](CCCN=C(N)N)C(=O)NCC(N)=O)NC(=O)[C@H](CC(N)=O)NC1=O (HELM PEPTIDE1{Y.F.V.N.C.P.[dR].G.[am]}|CHEM1{[O=C(CC1(S[*:2])CCCCC1)[*:1]]}$PEPTIDE1,CHEM1,1:R1-1:R1|PEPTIDE1,CHEM1,5:R3-1:R2$$$V2.0) [listing 1 of 2 here]	–	589	–	234	–
CC(C)[C@@H]1NC(=O)[C@H](Cc2ccccc2)NC(=O)[C@H](Cc2ccc(O)cc2)NC(=O)CC2(CCCCC2)SSC[C@@H](C(=O)N2CCC[C@H]2C(=O)N[C@H](CCCN=C(N)N)C(=O)NCC(N)=O)NC(=O)[C@H](CC(N)=O)NC1=O (HELM PEPTIDE1{Y.F.V.N.C.P.[dR].G.[am]}|CHEM1{[O=C(CC1(S[*:2])CCCCC1)[*:1]]}$PEPTIDE1,CHEM1,1:R1-1:R1|PEPTIDE1,CHEM1,5:R3-1:R2$$$V2.0) [listing 2 of 2 here]	–	–	–	–	1.5
